Assay results reported in patent US9738634B2, “Heterocyclic amide compound and herbicide” (SYNGENTA PARTICIPATIONS AG, priority 2013, dated 2017).

Key:
Assay type in all cases: in vivo
barnyard grass [1] = test: Test Example 1: weedkilling efficacy, preemergent weed treatment in the submerged state; A: barnyard grass; settings: treatment dosage 252 g/ha
Method in brief: (§1)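 Submerged pre-emergence treatment, water-surface application of compound emulsion at g/ha dosages; 4 cm flooded alluvial soil, weeds sown and 2.5-leaf rice transplanted same day. Rated after 3 weeks, greenhouse.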

bulrush [2] = test: Test Example 1: weedkilling efficacy, preemergent weed treatment in the submerged state; B: bulrush; settings: treatment dosage 252 g/ha
Method in brief: as §1

oval-leafed pondweed [3] = test: Test Example 1: weedkilling efficacy, preemergent weed treatment in the submerged state; C: oval-leafed pondweed; settings: treatment dosage 252 g/ha
Method in brief: as §1

transplanted rice = test: Test Example 1: preemergent weed treatment in the submerged state, effect on crop; a: transplanted rice; settings: treatment dosage 252 g/ha
Method in brief: as §1

barnyard grass [4] = test: Test Example 2: weedkilling efficacy, growth period weed treatment in the submerged state; A: barnyard grass; settings: treatment dosage 252 g/ha
Method in brief: (§2)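 Seedlings at 1-2 leaves in 4 cm-deep submerged alluvial soil received emulsion formulations on the water surface, dosed per hectare; effects were judged 3 weeks on.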

bulrush [5] = test: Test Example 2: weedkilling efficacy, growth period weed treatment in the submerged state; B: bulrush; settings: treatment dosage 252 g/ha
Method in brief: as §2

oval-leafed pondweed [6] = test: Test Example 2: weedkilling efficacy, growth period weed treatment in the submerged state; C: oval-leafed pondweed; settings: treatment dosage 252 g/ha
Method in brief: as §2

crabgrass [7] = test: Test Example 3: weedkilling efficacy through soil treatment; D: crabgrass; settings: treatment dosage 315 g/ha
Method in brief: (§3)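 Crop and weed responses were judged three weeks after a uniform surface spray of the water-diluted emulsion at the given g/ha rate. Seeds sat beneath about 1.5 cm of sterilized diluvial soil, and boxes stood in a greenhouse at 25 to 30° C.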

green foxtail [8] = test: Test Example 3: weedkilling efficacy through soil treatment; E: green foxtail; settings: treatment dosage 315 g/ha
Method in brief: as §3

black-grass [9] = test: Test Example 3: weedkilling efficacy through soil treatment; H: black-grass; settings: treatment dosage 315 g/ha
Method in brief: as §3

Italian ryegrass [10] = test: Test Example 3: weedkilling efficacy through soil treatment; I: Italian ryegrass; settings: treatment dosage 315 g/ha
Method in brief: as §3

Indian mallow [11] = test: Test Example 3: weedkilling efficacy through soil treatment; K: Indian mallow; settings: treatment dosage 315 g/ha
Method in brief: as §3

redroot pigweed [12] = test: Test Example 3: weedkilling efficacy through soil treatment; L: redroot pigweed; settings: treatment dosage 315 g/ha
Method in brief: as §3

fig-leafed goosefoot [13] = test: Test Example 3: weedkilling efficacy through soil treatment; M: fig-leafed goosefoot; settings: treatment dosage 315 g/ha
Method in brief: as §3

chickweed [14] = test: Test Example 3: weedkilling efficacy through soil treatment; N: chickweed; settings: treatment dosage 315 g/ha
Method in brief: as §3

catchweed [15] = test: Test Example 3: weedkilling efficacy through soil treatment; O: catchweed; settings: treatment dosage 315 g/ha
Excerpt: Weedkilling Efficacy Test Through Soil Treatment
Sterilized diluvial soil was introduced into 21 cm long, 13 cm wide, 7 cm deep plastic boxes, and seeds of crabgrass, green foxtail, barnyard grass, wild oat, black-grass, Italian ryegrass, common wind-grass, Indian mallow, redroot pigweed, fig-leafed goosefoot, chickweed, catchweed, birds-eye speedwell, corn, soybean, rice, wheat, beet and rapeseed were each spot-sown, and covered with about 1.5 cm of soil. Next, emulsions of compounds of the present invention prepared according to compounding example 2 were diluted with water to give the specified dosages, and applied uniformly onto the soil surface with a small sprayer. The plants were grown by placing the plastic boxes in a greenhouse at 25 to 30° C., and 3 weeks after the pesticide treatment the effect on each type of plant was investigated on the basis of the assessment criteria of test example 1.
A: barnyard grass, B: bulrush, C: oval-leafed pondweed, D: crabgrass, E: green foxtail, F: barnyard grass, G: wild oat, H: black-grass, I: Italian ryegrass, J: common wind-grass, K: Indian mallow, L: redroot pigweed, M: fig-leafed goosefoot, N: chickweed, O: catchweed, p: birds-eye speedwell, a: transplanted rice, b: directly sown rice, c: corn, d: soybean, e: wheat, f: beet, g: rapeseed
Further, pesticide dosage (g/ha) indicates the concentration regulated such that treatment was with only the stated number of grams (g), when calculated per hectare (ha).

birds-eye speedwell [16] = test: Test Example 3: weedkilling efficacy through soil treatment; p: birds-eye speedwell; settings: treatment dosage 315 g/ha
Method in brief: as §3

directly sown rice [17] = test: Test Example 3: soil treatment, effect on crop; b: directly sown rice; settings: treatment dosage 315 g/ha
Method in brief: as §3

corn [18] = test: Test Example 3: soil treatment, effect on crop; c: corn; settings: treatment dosage 315 g/ha
Method in brief: as §3

soybean [19] = test: Test Example 3: soil treatment, effect on crop; d: soybean; settings: treatment dosage 315 g/ha
Method in brief: as §3

wheat [20] = test: Test Example 3: soil treatment, effect on crop; e: wheat; settings: treatment dosage 315 g/ha
Method in brief: as §3

beet [21] = test: Test Example 3: soil treatment, effect on crop; f: beet; settings: treatment dosage 315 g/ha
Method in brief: as §3

crabgrass [22] = test: Test Example 4: weedkilling efficacy by foliar treatment; D: crabgrass; settings: treatment dosage 315 g/ha
Method in brief: (§4)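 Seeds are spot-sown into sterilized diluvial soil and covered with about 1.5 cm of soil. After 14 days' greenhouse growth at 25 to 30° C, plants are sprayed on stems and leaves with diluted emulsion at the stated g/ha rate, then scored at 3 weeks.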

green foxtail [23] = test: Test Example 4: weedkilling efficacy by foliar treatment; E: green foxtail; settings: treatment dosage 315 g/ha
Method in brief: as §4

black-grass [24] = test: Test Example 4: weedkilling efficacy by foliar treatment; H: black-grass; settings: treatment dosage 315 g/ha
Method in brief: as §4

Italian ryegrass [25] = test: Test Example 4: weedkilling efficacy by foliar treatment; I: Italian ryegrass; settings: treatment dosage 315 g/ha
Method in brief: as §4

Indian mallow [26] = test: Test Example 4: weedkilling efficacy by foliar treatment; K: Indian mallow; settings: treatment dosage 315 g/ha
Method in brief: as §4

redroot pigweed [27] = test: Test Example 4: weedkilling efficacy by foliar treatment; L: redroot pigweed; settings: treatment dosage 315 g/ha
Method in brief: as §4

fig-leafed goosefoot [28] = test: Test Example 4: weedkilling efficacy by foliar treatment; M: fig-leafed goosefoot; settings: treatment dosage 315 g/ha
Method in brief: as §4

chickweed [29] = test: Test Example 4: weedkilling efficacy by foliar treatment; N: chickweed; settings: treatment dosage 315 g/ha
Method in brief: as §4

catchweed [30] = test: Test Example 4: weedkilling efficacy by foliar treatment; O: catchweed; settings: treatment dosage 315 g/ha
Method in brief: as §4

birds-eye speedwell [31] = test: Test Example 4: weedkilling efficacy by foliar treatment; p: birds-eye speedwell; settings: treatment dosage 315 g/ha
Method in brief: as §4

directly sown rice [32] = test: Test Example 4: foliar treatment, effect on crop; b: directly sown rice; settings: treatment dosage 315 g/ha
Method in brief: as §4

corn [33] = test: Test Example 4: foliar treatment, effect on crop; c: corn; settings: treatment dosage 315 g/ha
Method in brief: as §4

soybean [34] = test: Test Example 4: foliar treatment, effect on crop; d: soybean; settings: treatment dosage 315 g/ha
Method in brief: as §4

wheat [35] = test: Test Example 4: foliar treatment, effect on crop; e: wheat; settings: treatment dosage 315 g/ha
Method in brief: as §4

beet [36] = test: Test Example 4: foliar treatment, effect on crop; f: beet; settings: treatment dosage 315 g/ha
Method in brief: as §4

SMILES	A (barnyard grass) weedkilling efficacy grade (barnyard grass [1])	B (bulrush) weedkilling efficacy grade (bulrush [2])	C (oval-leafed pondweed) weedkilling efficacy grade (oval-leafed pondweed [3])	a (transplanted rice) effect on crop grade (transplanted rice)	A (barnyard grass) weedkilling efficacy grade (barnyard grass [4])	B (bulrush) weedkilling efficacy grade (bulrush [5])	C (oval-leafed pondweed) weedkilling efficacy grade (oval-leafed pondweed [6])	D (crabgrass) weedkilling efficacy grade (crabgrass [7])	E (green foxtail) weedkilling efficacy grade (green foxtail [8])	H (black-grass) weedkilling efficacy grade (black-grass [9])	I (Italian ryegrass) weedkilling efficacy grade (Italian ryegrass [10])	K (Indian mallow) weedkilling efficacy grade (Indian mallow [11])	L (redroot pigweed) weedkilling efficacy grade (redroot pigweed [12])	M (fig-leafed goosefoot) weedkilling efficacy grade (fig-leafed goosefoot [13])	N (chickweed) weedkilling efficacy grade (chickweed [14])	O (catchweed) weedkilling efficacy grade (catchweed [15])	P (birds-eye speedwell) weedkilling efficacy grade (birds-eye speedwell [16])	b (directly sown rice) effect on crop grade (directly sown rice [17])	c (corn) effect on crop grade (corn [18])	d (soybean) effect on crop grade (soybean [19])	also measured
CCc1nsc(NC(=O)C(C)(C)N2COC(C)=C(c3ccccc3)C2=O)n1 [B-1-14]	5 (weed kill ratio 90% or more, (practically complete withering))	5 (weed kill ratio 90% or more, (practically complete withering))	5 (weed kill ratio 90% or more, (practically complete withering))	1 (weed kill ratio 5% or more, less than 20%)	5 (weed kill ratio 90% or more, (practically complete withering))	5 (weed kill ratio 90% or more, (practically complete withering))	5 (weed kill ratio 90% or more, (practically complete withering))	5 (weed kill ratio 90% or more, (practically complete withering))	5 (weed kill ratio 90% or more, (practically complete withering))	5 (weed kill ratio 90% or more, (practically complete withering))	5 (weed kill ratio 90% or more, (practically complete withering))	3 (weed kill ratio 40% or more, less than 70%)	5 (weed kill ratio 90% or more, (practically complete withering))	5 (weed kill ratio 90% or more, (practically complete withering))	4 (weed kill ratio 70% or more, less than 90%)	5 (weed kill ratio 90% or more, (practically complete withering))	5 (weed kill ratio 90% or more, (practically complete withering))	5 (weed kill ratio 90% or more, (practically complete withering))	0 (weed kill ratio 5% or less (practically no effect))	3 (weed kill ratio 40% or more, less than 70%)	e (wheat) effect on crop grade (wheat [20]): 5 (weed kill ratio 90% or more, (practically complete withering)); f (beet) effect on crop grade (beet [21]): 5 (weed kill ratio 90% or more, (practically complete withering)); D (crabgrass) weedkilling efficacy grade (crabgrass [22]): 5 (weed kill ratio 90% or more, (practically complete withering)); E (green foxtail) weedkilling efficacy grade (green foxtail [23]): 5 (weed kill ratio 90% or more, (practically complete withering)); H (black-grass) weedkilling efficacy grade (black-grass [24]): 5 (weed kill ratio 90% or more, (practically complete withering)); I (Italian ryegrass) weedkilling efficacy grade (Italian ryegrass [25]): 5 (weed kill ratio 90% or more, (practically complete withering)); K (Indian mallow) weedkilling efficacy grade (Indian mallow [26]): 5 (weed kill ratio 90% or more, (practically complete withering)); L (redroot pigweed) weedkilling efficacy grade (redroot pigweed [27]): 5 (weed kill ratio 90% or more, (practically complete withering)); M (fig-leafed goosefoot) weedkilling efficacy grade (fig-leafed goosefoot [28]): 4 (weed kill ratio 70% or more, less than 90%); N (chickweed) weedkilling efficacy grade (chickweed [29]): 4 (weed kill ratio 70% or more, less than 90%); O (catchweed) weedkilling efficacy grade (catchweed [30]): 4 (weed kill ratio 70% or more, less than 90%); P (birds-eye speedwell) weedkilling efficacy grade (birds-eye speedwell [31]): 4 (weed kill ratio 70% or more, less than 90%); b (directly sown rice) effect on crop grade (directly sown rice [32]): 4 (weed kill ratio 70% or more, less than 90%); c (corn) effect on crop grade (corn [33]): 3 (weed kill ratio 40% or more, less than 70%); d (soybean) effect on crop grade (soybean [34]): 4 (weed kill ratio 70% or more, less than 90%); e (wheat) effect on crop grade (wheat [35]): 4 (weed kill ratio 70% or more, less than 90%); f (beet) effect on crop grade (beet [36]): 5 (weed kill ratio 90% or more, (practically complete withering))
CSc1nsc(NC(=O)C(C)(C)N2COC(C)=C(c3ccccc3)C2=O)n1 [B-1-16]	5 (weed kill ratio 90% or more, (practically complete withering))	5 (weed kill ratio 90% or more, (practically complete withering))	5 (weed kill ratio 90% or more, (practically complete withering))	2 (weed kill ratio 20% or more, less than 40%)	5 (weed kill ratio 90% or more, (practically complete withering))	5 (weed kill ratio 90% or more, (practically complete withering))	5 (weed kill ratio 90% or more, (practically complete withering))	5 (weed kill ratio 90% or more, (practically complete withering))	5 (weed kill ratio 90% or more, (practically complete withering))	5 (weed kill ratio 90% or more, (practically complete withering))	4 (weed kill ratio 70% or more, less than 90%)	0 (weed kill ratio 5% or less (practically no effect))	4 (weed kill ratio 70% or more, less than 90%)	4 (weed kill ratio 70% or more, less than 90%)	3 (weed kill ratio 40% or more, less than 70%)	5 (weed kill ratio 90% or more, (practically complete withering))	4 (weed kill ratio 70% or more, less than 90%)	3 (weed kill ratio 40% or more, less than 70%)	0 (weed kill ratio 5% or less (practically no effect))	0 (weed kill ratio 5% or less (practically no effect))	e (wheat) effect on crop grade (wheat [20]): 5 (weed kill ratio 90% or more, (practically complete withering)); f (beet) effect on crop grade (beet [21]): 0 (weed kill ratio 5% or less (practically no effect)); D (crabgrass) weedkilling efficacy grade (crabgrass [22]): 5 (weed kill ratio 90% or more, (practically complete withering)); E (green foxtail) weedkilling efficacy grade (green foxtail [23]): 5 (weed kill ratio 90% or more, (practically complete withering)); H (black-grass) weedkilling efficacy grade (black-grass [24]): 5 (weed kill ratio 90% or more, (practically complete withering)); I (Italian ryegrass) weedkilling efficacy grade (Italian ryegrass [25]): 3 (weed kill ratio 40% or more, less than 70%); K (Indian mallow) weedkilling efficacy grade (Indian mallow [26]): 5 (weed kill ratio 90% or more, (practically complete withering)); L (redroot pigweed) weedkilling efficacy grade (redroot pigweed [27]): 4 (weed kill ratio 70% or more, less than 90%); M (fig-leafed goosefoot) weedkilling efficacy grade (fig-leafed goosefoot [28]): 3 (weed kill ratio 40% or more, less than 70%); N (chickweed) weedkilling efficacy grade (chickweed [29]): 0 (weed kill ratio 5% or less (practically no effect)); O (catchweed) weedkilling efficacy grade (catchweed [30]): 4 (weed kill ratio 70% or more, less than 90%); P (birds-eye speedwell) weedkilling efficacy grade (birds-eye speedwell [31]): 0 (weed kill ratio 5% or less (practically no effect)); b (directly sown rice) effect on crop grade (directly sown rice [32]): 4 (weed kill ratio 70% or more, less than 90%); c (corn) effect on crop grade (corn [33]): 2 (weed kill ratio 20% or more, less than 40%); d (soybean) effect on crop grade (soybean [34]): 3 (weed kill ratio 40% or more, less than 70%); e (wheat) effect on crop grade (wheat [35]): 1 (weed kill ratio 5% or more, less than 20%); f (beet) effect on crop grade (beet [36]): 1 (weed kill ratio 5% or more, less than 20%)
